Results reported in US20260138970A1, “MODULATORS OF THE CALCIUM SIGNALING CASCADE” (FONDAZIONE TELETHON ETS, priority 2022, published 2026).

Experiments:
Format in all cases: cell-based
ITPR1 = ITPR1 (Homo sapiens, UniProt Q14643); assay: ci-IP3/PM uncaging assay in HEK293 cells with selective expression of ITPR1 (HEKR1); parameters: host or cells: HEKR1 (HEK293); conditions: compounds 10 μM; FIG. 4B
Method: HEK293 cells totally devoid of ITPR expression (HEK3XKO) or with selective expression of ITPR1 (HEKR1), ITPR2 (HEKR2), or ITPR3 (HEKR3), obtained by selective gene ablation, were purchased from Kerafast (catalog number: EURO30, EURO31, EURO32, EURO33) and cultured in a mixture of Dulbecco's Modified Eagle Medium (DMEM, high glucose version) and Ham's F12 (1:1) and supplemented with 10% fetal bovine serum, 2 mM L-glutamine, 100 U/ml penicillin and 100 μg/ml streptomycin.
(§1) FRT and HEK293 cells were cultured in μ-Plate96 microplates (Ibidi) at subconfluent condition. Cells were washed 2 times with PBS (150 μl/wash) and then loaded for 45 min at 37° C. with 1 μM ci-IP3/PM (Tocris; catalog number: 6210/10U) and 5 μM Fluo-4/AM (Thermo Fisher Scientific) in PBS containing 10 mM glucose, 0.5 mM sulfinpyrazone and 1% fetal bovine serum. After 45 min, cells were further incubated for 1 h at 37° C. with a fresh PBS solution containing Fluo-4/AM, glucose, sulfinpyrazone, serum, but no ci-IP3/PM. […] Analysis was performed with MetaFluor software, by quantifying Fluo-4 fluorescence in manually selected single cell region of interest (ROI). […] After background subtraction, fluorescence traces were normalized for the initial value.

T267M ITPR1 = molecular target: T1, T267M ITPR1 (Homo sapiens, UniProt Q14643, T267M); assay: IP3 uncaging assay, HEK293 cells expressing T267M-ITPR1; conditions: compound 10 μM; tetracycline-treated; FIG. 6D
T1 construct: expressed in transfected cells
Method: (§2) HEK293 cells stably transfected with tetracycline-inducible expression of wild type or mutant (R269W or T267M) ITPR1, kindly provided by Prof. S. R. Wayne Chen (University of Calgary; ref. 14), were cultured in a mixture of Dulbecco's Modified Eagle Medium (DMEM, high glucose version) and Ham's F12 (1:1) and supplemented with 10% fetal bovine serum, 2 mM L-glutamine, 100 U/ml penicillin and 100 μg/ml streptomycin. Cells were selected with 0.5 mg/ml hygromycin B and induced with 1 μg/ml tetracycline.
as §1

R269W ITPR1 = molecular target: T2, R269W ITPR1 (Homo sapiens, UniProt Q14643, R269W); assay: IP3 uncaging assay, HEK293 cells expressing R269W-ITPR1; conditions: compound 10 μM; tetracycline-treated; FIG. 6D
T2 construct: expressed in transfected cells
Method: as §2, §1

Sequence of ITPR1 (Q14643 whole entry): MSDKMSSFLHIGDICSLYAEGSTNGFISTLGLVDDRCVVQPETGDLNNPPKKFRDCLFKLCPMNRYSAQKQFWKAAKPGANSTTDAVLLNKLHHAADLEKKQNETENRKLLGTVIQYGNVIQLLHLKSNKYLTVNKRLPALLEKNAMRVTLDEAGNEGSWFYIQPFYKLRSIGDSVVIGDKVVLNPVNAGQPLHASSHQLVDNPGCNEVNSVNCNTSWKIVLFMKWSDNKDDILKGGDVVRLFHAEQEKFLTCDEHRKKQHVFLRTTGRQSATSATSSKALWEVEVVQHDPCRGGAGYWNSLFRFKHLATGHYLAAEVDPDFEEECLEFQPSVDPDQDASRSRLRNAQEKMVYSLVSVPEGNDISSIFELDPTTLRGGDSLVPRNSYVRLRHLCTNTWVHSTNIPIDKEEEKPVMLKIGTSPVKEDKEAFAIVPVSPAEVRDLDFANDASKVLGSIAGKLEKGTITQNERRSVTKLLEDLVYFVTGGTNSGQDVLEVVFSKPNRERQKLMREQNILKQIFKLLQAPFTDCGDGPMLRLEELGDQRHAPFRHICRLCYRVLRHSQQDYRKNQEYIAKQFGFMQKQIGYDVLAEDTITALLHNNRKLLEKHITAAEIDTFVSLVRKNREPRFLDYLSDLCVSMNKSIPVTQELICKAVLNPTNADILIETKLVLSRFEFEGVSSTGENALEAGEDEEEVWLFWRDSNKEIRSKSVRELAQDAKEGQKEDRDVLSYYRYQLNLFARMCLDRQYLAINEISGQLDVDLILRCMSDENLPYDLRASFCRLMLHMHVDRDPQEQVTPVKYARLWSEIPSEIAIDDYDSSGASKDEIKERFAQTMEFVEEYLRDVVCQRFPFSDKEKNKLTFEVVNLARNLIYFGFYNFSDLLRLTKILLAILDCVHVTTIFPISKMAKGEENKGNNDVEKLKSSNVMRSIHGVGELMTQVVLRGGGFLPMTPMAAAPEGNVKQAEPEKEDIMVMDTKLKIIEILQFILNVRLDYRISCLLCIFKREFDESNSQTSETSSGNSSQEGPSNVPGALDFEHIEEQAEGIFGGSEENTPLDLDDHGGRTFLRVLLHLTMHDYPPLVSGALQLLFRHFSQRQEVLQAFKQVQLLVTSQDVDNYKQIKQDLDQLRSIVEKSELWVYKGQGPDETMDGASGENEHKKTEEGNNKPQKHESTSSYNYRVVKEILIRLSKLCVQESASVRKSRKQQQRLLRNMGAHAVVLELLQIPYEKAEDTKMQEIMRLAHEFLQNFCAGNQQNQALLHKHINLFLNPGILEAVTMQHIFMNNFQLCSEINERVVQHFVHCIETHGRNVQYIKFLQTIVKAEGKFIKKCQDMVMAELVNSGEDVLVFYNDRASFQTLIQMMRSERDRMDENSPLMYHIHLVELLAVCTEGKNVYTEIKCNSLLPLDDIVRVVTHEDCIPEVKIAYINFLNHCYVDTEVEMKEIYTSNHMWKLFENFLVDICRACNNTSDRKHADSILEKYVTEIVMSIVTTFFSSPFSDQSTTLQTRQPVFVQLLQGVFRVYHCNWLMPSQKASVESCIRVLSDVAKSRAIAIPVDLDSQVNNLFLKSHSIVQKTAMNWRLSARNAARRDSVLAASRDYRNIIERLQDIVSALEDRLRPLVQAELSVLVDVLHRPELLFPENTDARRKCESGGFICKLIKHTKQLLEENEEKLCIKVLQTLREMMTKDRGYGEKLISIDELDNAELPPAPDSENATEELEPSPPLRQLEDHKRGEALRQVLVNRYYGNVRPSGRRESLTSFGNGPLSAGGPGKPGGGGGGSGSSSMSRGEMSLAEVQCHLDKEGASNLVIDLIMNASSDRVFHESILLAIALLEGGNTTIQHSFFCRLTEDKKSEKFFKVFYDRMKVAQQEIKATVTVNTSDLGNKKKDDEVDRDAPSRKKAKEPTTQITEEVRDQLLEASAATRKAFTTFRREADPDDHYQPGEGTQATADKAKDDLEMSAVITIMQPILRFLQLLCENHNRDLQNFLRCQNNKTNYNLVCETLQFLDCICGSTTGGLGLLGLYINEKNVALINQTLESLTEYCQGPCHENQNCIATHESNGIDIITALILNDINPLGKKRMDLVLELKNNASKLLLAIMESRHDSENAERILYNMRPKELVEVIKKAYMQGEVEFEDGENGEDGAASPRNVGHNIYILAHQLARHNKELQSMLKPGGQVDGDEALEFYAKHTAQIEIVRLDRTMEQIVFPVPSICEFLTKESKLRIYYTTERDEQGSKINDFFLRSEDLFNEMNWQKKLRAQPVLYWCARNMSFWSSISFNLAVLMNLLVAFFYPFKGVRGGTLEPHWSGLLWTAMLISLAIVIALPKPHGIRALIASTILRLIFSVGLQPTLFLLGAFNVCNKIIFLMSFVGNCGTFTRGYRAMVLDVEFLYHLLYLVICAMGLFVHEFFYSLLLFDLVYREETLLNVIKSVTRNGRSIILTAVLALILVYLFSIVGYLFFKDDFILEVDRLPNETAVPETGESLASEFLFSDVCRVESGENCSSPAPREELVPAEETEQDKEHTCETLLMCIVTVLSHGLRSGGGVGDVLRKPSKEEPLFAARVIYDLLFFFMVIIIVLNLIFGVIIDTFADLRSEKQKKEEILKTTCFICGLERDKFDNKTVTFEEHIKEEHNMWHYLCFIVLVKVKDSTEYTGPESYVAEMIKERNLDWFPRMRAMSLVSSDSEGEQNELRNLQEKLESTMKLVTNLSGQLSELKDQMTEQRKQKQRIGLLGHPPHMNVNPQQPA

Compound: CCn1nc2c(c1C(=O)Nc1ccccc1OCC1CCCCO1)CCCC2 (stereo not drawn) [ARN11391, 2-Ethyl-N-[2-(tetrahydropyran-2-ylmethoxy)phenyl]-4,5,6,7-tetrahydroindazole-3-carboxamide]
- activity on Ca2+ mobilization by IP3 uncaging, cells with selective expression of ITPR1 (ITPR1): uniquely effective
- Ca2+ mobilization elicited by IP3 uncaging, T267M-ITPR1 (T267M ITPR1): significantly amplified
- Ca2+ mobilization elicited by IP3 uncaging, R269W-ITPR1 (R269W ITPR1): significantly amplified
